Test results as given in PMC9133036 (Nature Communications, 2022).
Where a chain is given by its changes, count along the chain named. Several values for one entry are separate records, joined by “and”; a condition that tells them apart may be missing. Identical values can stand only once. Like-named read-outs stand apart in the source and are kept apart here.

Legend:
Format in all cases: cell-based
OX1R S103T = target: T1, OX1R S103T (Homo sapiens, UniProt O43613, S103T); test: IP accumulation assay, OX1R S103T
T1 construct: FLAG; expressed in transfected cells; host or cells: HEK293
T1 sequence (O43613 1-425 S103T): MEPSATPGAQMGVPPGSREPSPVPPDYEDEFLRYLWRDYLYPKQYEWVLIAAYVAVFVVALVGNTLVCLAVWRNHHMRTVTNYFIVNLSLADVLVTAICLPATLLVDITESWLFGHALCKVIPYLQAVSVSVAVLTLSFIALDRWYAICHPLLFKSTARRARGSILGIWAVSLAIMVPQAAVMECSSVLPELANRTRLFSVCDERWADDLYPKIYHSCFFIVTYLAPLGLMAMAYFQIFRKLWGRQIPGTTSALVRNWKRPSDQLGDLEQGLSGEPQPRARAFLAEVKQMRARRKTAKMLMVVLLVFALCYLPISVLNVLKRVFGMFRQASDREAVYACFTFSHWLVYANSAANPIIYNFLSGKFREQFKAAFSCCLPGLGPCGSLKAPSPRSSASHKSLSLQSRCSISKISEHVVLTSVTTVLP
Source text: (§1) The IP assay was adapted from a prior precedent. HEK293 cells were maintained in DMEM-high glucose (Millipore Sigma) supplemented with 5% fetal bovine serum (Corning) and penicillin-streptomycin (Millipore Sigma). Receptor constructs used were the full-length wild-type (or mutant) human OX1R and OX2R sequences cloned into pCDNA3. To enhance the Emax in the IP assay, a plasmid encoding full-length human Gαq subunit[66] was co-transfected into HEK293 cells with plasmids encoding orexin receptor constructs using Lipofectamine 3000 (Thermo Fisher). 24 h after transfection, the cells were plated on poly-D-lysine coated (Millipore Sigma) tissue culture-treated 96 well white plates with clear bottoms (Perkin Elmer) at 30,000 cells per well in Inositol-free DMEM (MP Biomedicals) supplemented with 5% fetal bovine serum, 4 mM L-glutamine (Millipore Sigma), penicillin-streptomycin, and about 5 uCi (5 ul) per ml myo-[2-3H] inositol (Perkin Elmer). The following day, the media was replaced with agonists that were diluted in HBSS (Millipore Sigma) containing 10 mM lithium chloride (Millipore Sigma) and incubated at 37 °C for 45 min. Then agonists were removed and cells were lysed on ice for 30 min with 10 mM formic acid (Millipore Sigma). 1.25 mg of poly-lysine coated YSI SPA beads (Perkin Elmer) was added to each well. The plates were mixed on an orbital shaker for 30 min. The plates were read on a MicroBeta scintillation counter (Perkin Elmer) the following day. IP accumulation assays on different constructs were performed in n ≥ 3 independent experiments (each done in duplicate), where n is shown in Supplementary Table 2.

OX2R T111S = target: T2, OX2R T111S (Homo sapiens, UniProt O43614, T111S); test: IP accumulation assay, OX2R T111S
T2 construct: FLAG; expressed in transfected cells; host or cells: HEK293
T2 sequence (O43614 1-444 T111S): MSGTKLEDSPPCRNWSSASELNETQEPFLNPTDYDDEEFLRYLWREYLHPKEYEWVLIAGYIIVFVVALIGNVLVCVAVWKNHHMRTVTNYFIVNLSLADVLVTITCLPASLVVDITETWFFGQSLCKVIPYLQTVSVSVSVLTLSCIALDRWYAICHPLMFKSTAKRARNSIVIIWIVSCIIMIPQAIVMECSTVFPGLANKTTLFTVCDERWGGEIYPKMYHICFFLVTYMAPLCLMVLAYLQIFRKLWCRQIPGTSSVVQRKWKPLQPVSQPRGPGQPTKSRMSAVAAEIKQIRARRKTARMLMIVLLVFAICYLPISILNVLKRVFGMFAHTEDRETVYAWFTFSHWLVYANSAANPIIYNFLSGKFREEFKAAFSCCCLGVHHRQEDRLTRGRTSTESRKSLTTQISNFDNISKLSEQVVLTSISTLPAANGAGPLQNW
Source text: as §1

OX2R Y317A = target: T3, OX2R Y317A (Homo sapiens, UniProt O43614, Y317A); test: β-arrestin PathHunter assay, OX2R Y317A; conditions: for EC50: β-arrestin recruitment
T3 construct: expressed in transfected cells; host or cells: CHO-K1 stably expressing EA β-arrestin2
T3 sequence (O43614 1-444 Y317A): T2 sequence (O43614 1-444 T111S) with S111T, Y317A
Experimental: (§2) β-Arrestin recruitment activity was measured by using the PathHunter system (DiscoveRX) according to the manufacturer’s instruction. Receptor constructs used were the full-length wild-type (or mutant) human OX2R sequences cloned into pCMV-ProLink (DiscoveRX). CHO-K1 cells stably expressing EA β-arrestin2 (DiscoveRX) were plated on 384 well white plates (Thermo Fisher) at 4000 cells/well in HamF12 (Wako Pure Chemical Industries) supplemented with 10% fetal bovine serum (Corning) and penicillin-streptomycin (Wako Pure Chemical Industries) and incubated overnight at 37 °C under 5% CO2. Cells were transfected with plasmids encoding wild type or each mutant ProLink-tagged human OX2R using FuGENE HD (Promega). […] Detection reagent was added and incubated for 1 h at room temperature. Luminescent signal was detected using an EnVision plate reader (PerkinElmer). β-arrestin assays on different constructs were performed in two or three independent experiments (each done in quadruplicate). Dose response curves (shown in Supplementary Fig. 8) were fitted to the three-parameter model ‘log(agonist) vs response’ in GraphPad Prism to determine pEC50 values.

OX2R H350A = target: T4, OX2R H350A (Homo sapiens, UniProt O43614, H350A); test: β-arrestin PathHunter assay, OX2R H350A; conditions: β-arrestin recruitment
T4 construct: expressed in transfected cells; host or cells: CHO-K1 stably expressing EA β-arrestin2
T4 sequence (O43614 whole entry H350A): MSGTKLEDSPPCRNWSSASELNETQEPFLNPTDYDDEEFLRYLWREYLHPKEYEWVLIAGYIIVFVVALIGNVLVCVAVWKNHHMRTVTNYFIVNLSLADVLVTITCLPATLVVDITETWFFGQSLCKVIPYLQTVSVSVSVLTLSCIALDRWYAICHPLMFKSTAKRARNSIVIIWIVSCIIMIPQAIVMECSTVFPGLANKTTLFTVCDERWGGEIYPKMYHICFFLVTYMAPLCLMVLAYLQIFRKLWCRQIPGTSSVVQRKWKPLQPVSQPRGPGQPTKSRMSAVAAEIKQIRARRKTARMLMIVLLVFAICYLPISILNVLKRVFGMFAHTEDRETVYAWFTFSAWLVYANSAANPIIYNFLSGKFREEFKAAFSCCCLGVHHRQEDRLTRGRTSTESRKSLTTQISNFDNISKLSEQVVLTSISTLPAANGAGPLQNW
Experimental: as §2

SMILES: COC(=O)N1CCC[C@H](NS(C)(=O)=O)[C@@H]1CO[C@H]1CC[C@@H](c2ccccc2)CC1 [TAK-925, methyl (2R,3S)−3-[(methylsulfonyl)amino]−2-{[(cis−4-phenylcyclohexyl)oxy]methyl}piperidine-1-carboxylate]
- activation at 100 µM (OX1R S103T; 0.75 h, TAK-925 conc (log, M) -4.00): 122%
- activation at 11.2 µM (OX1R S103T; 0.75 h, TAK-925 conc (log, M) -4.95): 88.4%
- activation at 3.72 µM (OX1R S103T; 0.75 h, TAK-925 conc (log, M) -5.43): 57.1%
- activation at 1.23 µM (OX1R S103T; 0.75 h, TAK-925 conc (log, M) -5.91): 21.9%
- activation at 0.0457 µM (OX1R S103T; 0.75 h, TAK-925 conc (log, M) -7.34): 9.04%
- EC50 (OX1R S103T; IP accumulation): 5.3 µM
- Emax (OX1R S103T; relative to OX1R S103T/A127T/TAK-925): 130
- EC50 (OX2R T111S; IP accumulation): 0.23 µM
- % IP accumulation (OX2R T111S; TAK-925 conc (log, M) -4.00, normalized to OX2R WT Emax): 70.98% and 87.26% and 72.84%
- % IP accumulation (OX2R T111S; TAK-925 conc (log, M) -4.48): 81.25% and 84.62% and 46.26%
- % IP accumulation (OX2R T111S; TAK-925 conc (log, M) -4.95): 89.34% and 80.76% and 67.67%
- % IP accumulation (OX2R T111S; TAK-925 conc (log, M) -5.43): 71.72% and 74.73% and 72.02%
- % IP accumulation (OX2R T111S; TAK-925 conc (log, M) -5.91): 64.42% and 69.82% and 64.34%
- % IP accumulation (OX2R T111S; TAK-925 conc (log, M) -6.39): 51.66% and 41.45% and 43.47%
- % IP accumulation (OX2R T111S; TAK-925 conc (log, M) -6.86): 34.40% and 35.79% and 28.55%
- % IP accumulation (OX2R T111S; TAK-925 conc (log, M) -7.34): 18.97% and 17.10% and 14.95%
- % IP accumulation (OX2R T111S; TAK-925 conc (log, M) -7.82): 8.44% and 12.15% and 9.41%
- % IP accumulation (OX2R T111S; TAK-925 conc (log, M) -8.29): 4.76% and 0.00% and 2.26%
- % IP accumulation (OX2R T111S; TAK-925 conc (log, M) -8.77): 0.00% and 8.93%
- Emax (OX2R T111S; relative to OX2R WT/TAK-925): 76
- β-arrestin recruitment, change on mutation of Tyr317 (OX2R Y317A): large reductions
- EC50 (OX2R Y317A; pEC50 ± SEM, read-out: pEC50 (converted)): > 30.2 µM
- EC50 (OX2R Y317A; read-out: EC50): > 30 µM
- EC50 (OX2R H350A): 4.8 µM
